We go through 13 compounds from article PMC3261798, “Design, Synthesis, and Biological Evaluation of PKD Inhibitors” (Pharmaceutics, 2011).

Data set [1] addresses T1, PKD1 (Homo sapiens, UniProt Q15139).
T1 sequence (Q15139 1-912): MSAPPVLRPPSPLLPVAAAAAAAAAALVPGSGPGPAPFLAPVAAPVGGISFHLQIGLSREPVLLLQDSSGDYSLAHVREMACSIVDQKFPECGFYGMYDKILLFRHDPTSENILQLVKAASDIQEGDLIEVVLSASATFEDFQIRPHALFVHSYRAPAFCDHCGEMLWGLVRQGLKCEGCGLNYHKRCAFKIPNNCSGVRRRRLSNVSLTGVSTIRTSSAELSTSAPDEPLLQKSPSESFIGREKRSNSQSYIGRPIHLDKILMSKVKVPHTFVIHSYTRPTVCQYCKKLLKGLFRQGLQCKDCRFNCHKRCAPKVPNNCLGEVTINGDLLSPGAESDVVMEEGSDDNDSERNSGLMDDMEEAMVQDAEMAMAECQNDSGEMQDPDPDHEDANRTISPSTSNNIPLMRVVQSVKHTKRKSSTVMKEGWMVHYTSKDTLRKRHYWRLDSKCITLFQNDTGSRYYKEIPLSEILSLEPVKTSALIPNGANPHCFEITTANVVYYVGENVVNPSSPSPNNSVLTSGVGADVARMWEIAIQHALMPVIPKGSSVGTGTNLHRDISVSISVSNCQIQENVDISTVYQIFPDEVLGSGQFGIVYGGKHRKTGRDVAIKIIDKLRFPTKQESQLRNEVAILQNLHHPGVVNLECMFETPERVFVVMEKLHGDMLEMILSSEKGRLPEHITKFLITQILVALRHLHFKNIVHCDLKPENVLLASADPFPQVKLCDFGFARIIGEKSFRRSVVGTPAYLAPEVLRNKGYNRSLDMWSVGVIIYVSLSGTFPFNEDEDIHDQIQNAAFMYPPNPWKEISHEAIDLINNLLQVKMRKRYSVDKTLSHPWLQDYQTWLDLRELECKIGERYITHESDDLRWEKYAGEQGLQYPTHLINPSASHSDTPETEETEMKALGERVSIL
In words: IMAP-based PKD Fluorescence Polarization (FP) assay, automated HTS format. Type of data set: biochemical. Particulars: mean ± SEM, n = number of independent experiments. The method, then:
An automated, HTS formatted IMAP-based PKD Fluorescence Polarization (FP) assay was used to assess the specificity of the PKD analogs as previously described. […] Kinase reactions were incubated for 90 min at room temperature and stopped by the addition of IMAP binding reagent. Assay plates were then incubated for 2 h and IMAP-based FP data were captured on a Molecular Devices Spectra-Max M5 (Sunnyvale, CA, USA).
Background: In fluorescence polarisation assays a small probe gives low polarisation when free and higher when bound to something large.

Data set [2] has as its target T1, PKD1. In words: In vitro radiometric PKD kinase activity assay. It is filed as biochemical. Also noted: purchased Biomol International. To be noted: mean ± SEM, n = number of independent experiments; read-out: IC50 Radiometric PKD1. The method, then: In vitro radiometric PKD kinase assays were conducted as previously described. Briefly, 50 ng recombinant human PKD1 (Biomol International, Plymouth Meeting, PA, USA) was incubated at 30 °C for 10 min with a reaction mixture containing 2.5 μg syntide-2 (Sigma), 70 μM ATP, and 1 μCi γ-^32 P-ATP (PerkinElmer, Boston, MA, USA) in kinase buffer (50 mM Tris-HCl pH 7.5, […], and 10 mM […]). 25 μL of the reaction mixture was then spotted on Whatman P81 filter paper (Whatman Inc., Clifton, NJ, USA), and filter papers were washed three times with 0.5% phosphoric acid, dried, then counted using a Beckman LS6500 multi-purpose scintillation counter.

Broadly, the IC50 is the concentration that inhibits the measured activity by half. Broadly, the melting point is the temperature of the solid-liquid transition. Turning to `O=C1NCCC(O)c2c1oc1ccc(O)cc21` (stereo not shown) [kb-NB123-89, 5,7-Dihydroxy-2,3,4,5-tetrahydro-[1]benzoxolo[2,3-c]azepin-1-one], the melting point fell in the range of 280 to 282 °C. On PKD1 [1], the IC50 worked out at 24100 ± 710 nM. At PKD1 [2], the IC50 is 1230 ± 210 nM.

`O=C1NCCC(=O)c2c1oc1ccc(O)cc21` [kb-NB123-63, 7-Hydroxy-3,4-dihydro-[1]benzoxolo[2,3-c]azepine-1,5(2H)-dione] gave a melting point above 300 °C. On PKD1 [1], this compound came in with an IC50 of 14900 ± 1200 nM. Besides, the IC50 at PKD1 [2] stood at 850 ± 110 nM.

Take `O=C1NCCc2c1oc1ccc(O)cc21` [kb-NB123-23A, 6-Hydroxy-3,4-dihydrobenzoxolo[2,3-c]pyridin-1(2H)-one]: the melting point lay in the range of 265 to 268 °C. The same compound yielded an IC50 against PKD1 [1] of 12600 ± 1300 nM. For the same compound, the IC50 on PKD1 [2] worked out at 1410 nM.

On to `O=C1NCCCc2c1oc1ccc(O)c(Cl)c21` [kb-NB77-88, 6-Chloro-7-hydroxy-2,3,4,5-tetrahydro-[1]benzoxolo[2,3-c]azepin-1-one], for which the melting point is above 300 °C. 1400 ± 100 nM corresponded to half-maximal inhibition against PKD1 [1] (IC50). Further, at PKD1 [2], the IC50 was 890 nM.

As to `Nc1ccc2[nH]c3c(c2c1)CCNC3=O` [kb-NB142-08, 6-Amino-2,3,4,9-tetrahydro-1H-pyrido[3,4-b]indol-1-one], the melting point lay within 280 to 282 °C. In addition, the IC50 at PKD1 [1] came out at 74400 ± 2200 nM. Further, the IC50 on PKD1 [2] came out at 15700 ± 190 nM.

In turn, `O=C1NCCC(=NNc2ccccc2)c2c1oc1ccc(O)cc21` [kb-NB142-05, 7-Hydroxy-5-(2-phenylhydrazono)-2,3,4,5-tetrahydro-[1]benzoxolo[2,3-c]azepin-1-one] returned a melting point of 234 to 236 °C. In addition, 21700 ± 520 nM corresponded to half-maximal inhibition at PKD1 [1] (IC50). Also, at PKD1 [2], the IC50 was 1130 nM.

`O=C1NCCc2c1[nH]c1ccc(O)cc21` [kb-NB123-59, 2,3,4,9-Tetrahydro-6-hydroxy-1H-pyrido[3,4-b]indol-1-one] yielded a melting point of 244 to 247 °C. On PKD1 [1], this compound had an IC50 of 19400 ± 1400 nM. Also, the IC50 at PKD1 [2] came to 1570 ± 200 nM.

Consider `C=CCc1c(O)ccc2oc3c(c12)CCCNC3=O` [kb-NB96-02, 6-Allyl-7-hydroxy-2,3,4,5-tetrahydro-[1]benzoxolo[2,3-c]azepin-1-one], for which the melting point is 255 to 257 °C. In addition, at PKD1 [1], the IC50 is 2400 ± 300 nM. Further, the IC50 on PKD1 [2] worked out at 1580 nM.

Consider `CC(C)(C)[Si](C)(C)Oc1ccc2oc(=O)c3c(c2c1)CCCN3` [kb-NB77-78, 9-(tert-Butyldimethylsilyloxy)-1,2,3,4-tetrahydrochromeno[3,4-b]pyridin-5-one], for which the melting point was 117 to 119 °C. For the same compound, the “IC50 IMAP-FP PKD1” value on PKD1 [1] was “not inhibitory”.

Turning to `COc1ccc2oc3c(c2c1)CCCNC3=O` [kb-NB77-56, 7-Methoxy-2,3,4,5-tetrahydro-[1]benzoxolo[2,3-c]azepin-1-one], the melting point fell in the range of 261 to 263 °C. The compound further registered an IC50 against PKD1 [1] of 2400 ± 140 nM. In addition, the IC50 on PKD1 [2] worked out at 2390 nM.

`C=CCOc1ccc2oc3c(c2c1)CCCNC3=O` [kb-NB77-84, 7-Allyloxy-2,3,4,5-tetrahydro-[1]benzoxolo[2,3-c]azepin-1-one] yielded a melting point of 198 to 200 °C. The same compound showed an IC50 at PKD1 [1] of 2600 ± 200 nM. Further, the IC50 at PKD1 [2] was 1230 nM.

Turning to `COc1ccc2oc3c(c2c1)CCN(C)C3=O` [kb-NB123-37, 6-Methoxy-2-methyl-3,4-dihydrobenzoxolo[2,3-c]pyridin-1(2H)-one], the melting point fell in the range of 168 to 172 °C. Besides, the “IC50 IMAP-FP PKD1” value on PKD1 [1] is “not inhibitory”.

As to `O=C1NCCCc2c1oc1ccc(O)c(F)c21` [kb-NB96-21, 6-Fluoro-7-hydroxy-2,3,4,5-tetrahydro-[1]benzoxolo[2,3-c]azepin-1-one], the melting point is above 300 °C. In addition, on PKD1 [1], the IC50 was 1300 ± 50 nM. The IC50 at PKD1 [2] amounted to 240 nM.
